Test results published in patent US12605399B2, “Compositions for CFTR MRNA therapy” (TRANSLATE BIO, INC., priority 2020, dated 2026).

Tested on: male CD1 mice
Test: Luciferase production in the lung after intratracheal FFL mRNA-LNP
Format: in vivo, mouse
Settings: for potency as determined by the average radiance detected in mouse lungs: FFL mRNA-LNP, intratracheal, about 5 hours post-dose; for performance in liposomes administered through pulmonary delivery via nebulization: mouse, in vivo
Description: About 150 cationic lipids were tested. (FIG. 7). Each cationic lipid was used in preparing lipid nanoparticles encapsulating mRNA encoding firefly luciferase protein (FFL mRNA) according to methods known in the art. For example, suitable methods for mRNA encapsulation include methods described in International Publication Nos. WO2016/004318 and WO 2018/089801, which is hereby incorporated by reference in its entirety. The tested lipid nanoparticles comprised a lipid component consisting of a cationic lipid, a non-cationic lipid (DOPE), a PEG-modified lipid (DMG-PEG2K), and optionally cholesterol.
Lipid nanoparticle formulations comprising FFL mRNA were administered to male CD1 mice by a single intratracheal administration via nebulization using a Microsprayer®. At approximately 5 hours post-dose, the animals were dosed with luciferin by intraperitoneal injection and all animals were imaged using an IVIS imaging system to measure luciferase production in the lung. […] Some cationic lipids remarkably had greater than 50-fold increase in pulmonary protein expression as compared to other cationic lipids.

SMILES	potency as determined by the average radiance detected in mouse lungs	performance in liposomes administered through pulmonary delivery via nebulization	historical radiance/expression of pulmonary-delivered FFL mRNA LNP (mice, nebulized FFL mRNA in LNP with this cationic lipid)
CCCCC/C=C\C/C=C\CCCCCCCC(=O)OCC(COC(=O)CCCCCCC/C=C\C/C=C\CCCCC)(COC(=O)CCCCCCC/C=C\C/C=C\CCCCC)NCCS(=O)(=O)NCCN(C)C [GL-TES-SA-DME-E18-2, 2-((2-(N-(2-(dimethylamino)ethyl)sulfamoyl)ethyl)amino)-2-((((9Z,12Z)-octadeca-9,12-dienoyl)oxy)methyl)propane-1,3-diyl (9Z,9′Z,12Z,12′Z)-bis(octadeca-9,12-dienoate)]	particularly high potency	performed particularly well	
CCCCC/C=C\C/C=C\CCCCCCCC(=O)OCC(COC(=O)CCCCCCC/C=C\C/C=C\CCCCC)(COC(=O)CCCCCCC/C=C\C/C=C\CCCCC)NCCS(=O)(=O)NCCCN(C)C [GL-TES-SA-DMP-E18-2]	particularly high potency	performed particularly well	
CCCCCCCCC(O)CN(CCCC(=O)OCCN1CC(C)N(CCOC(=O)CCCN(CC(O)CCCCCCCC)CC(O)CCCCCCCC)CC1C)CC(O)CCCCCCCC (stereo not shown) [HEP-E3-E10]	particularly high potency	performed particularly well	
CCCCCCCCC(O)CN(CCCCC(=O)OCCN1CC(C)N(CCOC(=O)CCCCN(CC(O)CCCCCCCC)CC(O)CCCCCCCC)CC1C)CC(O)CCCCCCCC (stereo not shown) [HEP-E4-E10]	particularly high potency	performed particularly well	
CC(C)CCCC(C)C1CCC2C3CC=C4CC(OC(=O)CCc5cnc[nH]5)CCC4(C)C3CCC12C (stereo not shown) [ICE, imidazole cholesterol ester, reference compound]			around 10^4 p/s/cm^2sr
CCCCCCCCOC(=O)CC(CC(=O)OCCCCCCCC)(OC(=O)CCN(C)C)C(=O)OCCCCCCCC [TL1-01D-DMA, trioctyl 2-((3-(dimethylamino)propanoyl)oxy)propane-1,2,3-tricarboxylate]	particularly high potency	performed particularly well	
CCCCCCCCCCCCCCOC(=O)CC(CC(=O)OCCCCCCCCCCCCCC)(OC(=O)CCN(C)C)C(=O)OCCCCCCCCCCCCCC [TL1-04D-DMA]	particularly high potency	performed particularly well	
